Source: patent publication US9963434B2, “N-arylmethyl sulfonamide negative modulators of NR2A” (LUC THERAPEUTICS, priority 2013, dated 2018)
Read-outs that look alike come from different tables or passages of the source.

Molecular target: NR1/NR2A (Homo sapiens (Human), UniProt Q05586+Q12879)
Test: FDSS Ca2+ influx inhibition assay in HEK293 cells expressing NR1/NR2A
Format: cell-based
Conditions: 3 μM glutamate, 3 μM glycine, 1 mM Ca2+
Outline: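 Fluo-8-loaded HEK293 NR1/NR2A cells preincubated 10 min with compound at 10 μM final (0.1% DMSO) in Ca2+/Mg2+-free HBSS with 20 mM HEPES. Stimulated with 3 μM glutamate, 3 μM glycine, 1 mM Ca2+; FDSS recording for 3 min, end/baseline fluorescence ratio compared with MK801.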

[1] = inhibition relative to MK801, read-out: NR2A IC50

Chain of NR1/NR2A (Q12879 23-1464, other chains not shown): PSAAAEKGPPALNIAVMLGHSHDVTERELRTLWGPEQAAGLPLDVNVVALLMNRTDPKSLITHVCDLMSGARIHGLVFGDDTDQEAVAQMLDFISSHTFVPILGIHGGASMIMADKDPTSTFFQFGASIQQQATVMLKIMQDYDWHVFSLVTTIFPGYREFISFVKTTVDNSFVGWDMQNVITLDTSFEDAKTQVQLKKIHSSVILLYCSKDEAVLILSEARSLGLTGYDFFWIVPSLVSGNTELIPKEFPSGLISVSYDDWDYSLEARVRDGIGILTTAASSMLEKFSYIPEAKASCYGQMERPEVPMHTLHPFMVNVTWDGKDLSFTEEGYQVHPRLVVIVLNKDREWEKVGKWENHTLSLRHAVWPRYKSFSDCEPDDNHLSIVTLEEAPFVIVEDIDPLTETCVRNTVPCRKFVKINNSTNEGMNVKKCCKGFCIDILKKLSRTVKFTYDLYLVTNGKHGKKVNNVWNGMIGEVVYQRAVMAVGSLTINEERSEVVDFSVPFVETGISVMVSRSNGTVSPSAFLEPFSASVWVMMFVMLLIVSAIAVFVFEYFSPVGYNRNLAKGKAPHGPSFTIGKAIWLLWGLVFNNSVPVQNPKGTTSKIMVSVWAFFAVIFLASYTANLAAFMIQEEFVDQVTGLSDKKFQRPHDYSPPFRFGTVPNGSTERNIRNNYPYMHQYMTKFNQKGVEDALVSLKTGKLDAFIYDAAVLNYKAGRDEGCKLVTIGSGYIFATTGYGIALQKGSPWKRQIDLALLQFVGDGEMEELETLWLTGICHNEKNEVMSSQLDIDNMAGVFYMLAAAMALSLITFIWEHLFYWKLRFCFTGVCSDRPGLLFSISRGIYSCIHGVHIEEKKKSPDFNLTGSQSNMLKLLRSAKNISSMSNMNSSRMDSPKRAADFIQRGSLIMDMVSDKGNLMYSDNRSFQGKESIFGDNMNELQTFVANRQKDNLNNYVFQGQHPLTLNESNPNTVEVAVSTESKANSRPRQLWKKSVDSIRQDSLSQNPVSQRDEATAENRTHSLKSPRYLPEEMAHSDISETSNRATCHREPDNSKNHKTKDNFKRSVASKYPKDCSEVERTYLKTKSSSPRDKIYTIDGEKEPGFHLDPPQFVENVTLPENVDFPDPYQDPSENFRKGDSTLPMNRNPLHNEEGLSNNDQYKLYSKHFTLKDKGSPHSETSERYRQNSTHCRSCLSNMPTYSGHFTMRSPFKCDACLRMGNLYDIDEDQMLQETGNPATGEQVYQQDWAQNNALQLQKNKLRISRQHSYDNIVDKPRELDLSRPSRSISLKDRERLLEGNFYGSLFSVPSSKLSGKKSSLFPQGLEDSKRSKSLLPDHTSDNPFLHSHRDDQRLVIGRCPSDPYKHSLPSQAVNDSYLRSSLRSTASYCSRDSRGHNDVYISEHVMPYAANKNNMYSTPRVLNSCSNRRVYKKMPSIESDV

Row | IC50 [1] | IC50 (read-out: Binned Activity) | SMILES
1 | 10 µM | > 10 µM | O=C(NCc1cccs1)c1ccc(CNS(=O)(=O)c2ccc(F)c(Cl)c2)nn1 [6-(3-chloro-4-fluorobenzenesulfon-amidomethyl)-N-(thiophen-2-ylmethyl)pyridazine-3-carboxamide]
2 | 10 µM | > 10 µM | O=C(NCc1ncc(C(F)(F)F)cc1Cl)c1ccc(CNS(=O)(=O)c2ccc(F)c(Cl)c2)nc1 [6-(3-chloro-4-fluorobenzenesulfon-amidomethyl)-N-{[3-chloro-5-(trifluoromethyl)pyridin-2-yl]methyl}pyridine-3-carboxamide]
3 | 10 µM | > 10 µM | COc1cccc(CNC(=O)c2ccc(CNS(=O)(=O)c3ccc(F)c(Cl)c3)nn2)c1 [6-(3-chloro-4-fluorobenzenesulfon-amidomethyl)-N-[(3-methoxyphenyl)methyl] pyridazine-3-carboxamide]
4 | 10 µM | > 10 µM | Cn1cnc(CNC(=O)c2ccc(CNS(=O)(=O)c3ccc(F)c(Cl)c3)cn2)c1 [5-(3-chloro-4-fluorobenzenesulfon-amidomethyl)-N-[(1-methyl-1H-imidazol-4-yl)methyl]pyridine-2-carboxamide]
5 | 10 µM | > 10 µM | O=C(NCc1ncccc1C(F)(F)F)c1ccc(CNS(=O)(=O)c2ccc(F)c(Cl)c2)nc1 [6-(3-chloro-4-fluorobenzenesulfon-amidomethyl)-N-{[3-(trifluoromethyl)pyridin-2-yl]methyl}pyridine-3-carboxamide]
6 |  | 0.1 to 1 µM | Cc1ncc(CNC(=O)c2ccc(CNS(=O)(=O)c3ccc(F)c(Cl)c3)cn2)s1 [5-(3-chloro-4-fluorobenzenesulfon-amidomethyl)-N-[(2-methyl-1,3-thiazol-5-yl)methyl]pyridine-2-carboxamide]
7 | 10 µM | > 10 µM | Cc1ccc(CNC(=O)c2ccc(CNS(=O)(=O)c3ccc(F)c(Cl)c3)cn2)s1 [5-(3-chloro-4-fluorobenzenesulfon-amidomethyl)-N-[(5-methylthiophen-2-yl)methyl]pyridine-2-carboxamide]
8 | 10 µM | > 10 µM | Cc1ncc(CNC(=O)c2cnc(CNS(=O)(=O)c3cc(Cl)cc(Cl)c3)cn2)s1 [5-(3,5-dichlorobenzenesulfon-amidomethyl)-N-[(2-methyl-1,3-thiazol-5-yl)methyl]pyrazine-2-carboxamide]
9 | 10 µM | > 10 µM | Cc1nc(CNC(=O)c2ccc(CNS(=O)(=O)c3ccc(F)c(Cl)c3)nc2)cs1 [6-(3-chloro-4-fluorobenzenesulfon-amidomethyl)-N-[(2-methyl-1,3-thiazol-4-yl)methyl]pyridine-3-carboxamide]
10 |  | 1 to 10 µM | O=C(NCc1cnccn1)c1ccc(CNS(=O)(=O)c2ccc(F)c(Cl)c2)cn1 [5-(3-chloro-4-fluorobenzenesulfon-amidomethyl)-N-(pyrazin-2-ylmethyl)pyridine-2-carboxamide]
11 | 10 µM | > 10 µM | CN(C)CCCNC(=O)c1ccc(CNS(=O)(=O)c2ccc(F)c(Cl)c2)cn1 [5-(3-chloro-4-fluorobenzenesulfon-amidomethyl)-N-[3-(dimethylamino)propyl] pyridine-2-carboxamide]
12 | 10 µM | > 10 µM | Cc1ncc(CNC(=O)c2ccc(CNS(=O)(=O)c3ccc(-c4csnn4)cc3)cn2)s1 [N-[(2-methyl-1,3-thiazol-5-yl)methyl]-5-[4-(1,2,3-thiadiazol-4-yl)benzenesulfonamido-methyl]pyridine-2-carboxamide]
13 |  | 1 to 10 µM | Cc1nnc(CNC(=O)c2ccc(CNS(=O)(=O)c3ccc(F)c(Cl)c3)cn2)o1 [5-(3-chloro-4-fluorobenzenesulfon-amidomethyl)-N-[(5-methyl-1,3,4-oxadiazol-2-yl)methyl]pyridine-2-carboxamide]
14 |  | < 0.1 µM | CCc1nc(C(=O)NCc2cnc(C)s2)cnc1CNS(=O)(=O)c1ccc(F)c(Cl)c1 [5-(3-chloro-4-fluorobenzenesulfon-amidomethyl)-6-ethyl-N-[(2-methyl-1,3-thiazol-5-yl)methyl]pyrazine-2-carboxamide]
15 | 10 µM | > 10 µM | Cc1ncc(CNC(=O)c2cnc(CNS(=O)(=O)c3cc(Cl)cc(Cl)c3)c(C)n2)s1 [5-(3,5-dichlorobenzenesulfon-amidomethyl)-6-methyl-N-[(2-methyl-1,3-thiazol-5-yl)methyl]pyrazine-2-carboxamide]
16 |  | 1 to 10 µM | CC(NC(=O)c1ccc(CNS(=O)(=O)c2ccc(F)c(Cl)c2)cn1)c1cccs1 (centres unmarked) [5-(3-chloro-4-fluorobenzenesulfon-amidomethyl)-N-[1-(thiophen-2-yl)ethyl]pyridine-2-carboxamide]
17 |  | 1 to 10 µM | Cc1ccncc1CNC(=O)c1ccc(CNS(=O)(=O)c2ccc(F)c(Cl)c2)nc1 [6-(3-chloro-4-fluorobenzenesulfon-amidomethyl)-N-[(4-methylpyridin-3-yl)methyl]pyridine-3-carboxamide]
18 |  | 1 to 10 µM | O=C(NCc1cnccn1)c1cnc(CNS(=O)(=O)c2ccc(F)c(Cl)c2)cn1 [5-(3-chloro-4-fluorobenzenesulfon-amidomethyl)-N-(pyrazin-2-ylmethyl)pyrazine-2-carboxamide]

Row | IC50 [1] | IC50 (read-out: Binned Activity) | SMILES
19 | 10 µM | > 10 µM | C[C@@H](NC(=O)c1ccc(CNS(=O)(=O)c2ccc(F)c(Cl)c2)cn1)c1cncs1 [5-(3-chloro-4-fluorobenzenesulfon-amidomethyl)-N-[(1R)-1-(1,3-thiazol-5-yl)ethyl]pyridine-2-carboxamide]
20 | 10 µM | > 10 µM | O=C(NCc1ccncn1)c1ccc(CNS(=O)(=O)c2ccc(F)c(Cl)c2)cn1 [5-(3-chloro-4-fluorobenzenesulfon-amidomethyl)-N-(pyrimidin-4-ylmethyl)pyridine-2-carboxamide]
21 | 10 µM | > 10 µM | Cc1ncc(CNC(=O)c2ccc(CNS(=O)(=O)c3ccc(C(F)(F)F)nc3)cn2)s1 [N-[(2-methyl-1,3-thiazol-5-yl)methyl]-5-[6-(trifluoromethyl)pyridine-3-sulfonamidomethyl] pyridine-2-carboxamide]
22 |  | 1 to 10 µM | Cc1nnc(CNC(=O)c2cnc(CNS(=O)(=O)c3ccc(F)c(Cl)c3)cn2)o1 [5-(3-chloro-4-fluorobenzenesulfon-amidomethyl)-N-[(5-methyl-1,3,4-oxadiazol-2-yl)methyl]pyrazine-2-carboxamide]
23 |  | 1 to 10 µM | O=C(NCc1cncnc1)c1ccc(CNS(=O)(=O)c2ccc(F)c(Cl)c2)cn1 [5-(3-chloro-4-fluorobenzenesulfon-amidomethyl)-N-(pyrimidin-5-ylmethyl)pyridine-2-carboxamide]
24 |  | 0.1 to 1 µM | COc1cc(CNC(=O)c2cnc(CNS(=O)(=O)c3ccc(F)c(Cl)c3)cn2)ccn1 [5-(3-chloro-4-fluorobenzenesulfon-amidomethyl)-N-[(2-methoxypyridin-4-yl)methyl]pyrazine-2-carboxamide]
25 | 10 µM | > 10 µM | Cc1nc(C)c(CNC(=O)c2cnc(CNS(=O)(=O)c3ccc(F)c(Cl)c3)cn2)s1 [5-(3-chloro-4-fluorobenzenesulfon-amidomethyl)-N-[(dimethyl-1,3-thiazol-5-yl)methyl]pyrazine-2-carboxamide]
26 |  | 1 to 10 µM | O=C(NCc1ccno1)c1ccc(CNS(=O)(=O)c2ccc(F)c(Cl)c2)cn1 [5-(3-chloro-4-fluorobenzenesulfon-amidomethyl)-N-(1,2-oxazol-5-ylmethyl)pyridine-2-carboxamide]
27 | 10 µM | > 10 µM | Cn1cnc(CNC(=O)c2cnc(CNS(=O)(=O)c3ccc(F)c(Cl)c3)cn2)c1 [5-(3-chloro-4-fluorobenzenesulfon-amidomethyl)-N-[(1-methyl-1H-imidazol-4-yl)methyl]pyrazine-2-carboxamide]
28 |  | 0.1 to 1 µM | O=C(NCc1cnccn1)c1ccc(CNS(=O)(=O)c2ccc(F)c(Cl)c2)nc1 [6-(3-chloro-4-fluorobenzenesulfon-amidomethyl)-N-(pyrazin-2-ylmethyl)pyridine-3-carboxamide]
29 | 10 µM | > 10 µM | Cc1nc(C)c(CNC(=O)c2ccc(CNS(=O)(=O)c3ccc(F)c(Cl)c3)nc2)s1 [6-(3-chloro-4-fluorobenzenesulfon-amidomethyl)-N-[(dimethyl-1,3-thiazol-5-yl)methyl]pyridine-3-carboxamide]
30 |  | 1 to 10 µM | Cc1ncc(CNC(=O)c2cnc(CNS(=O)(=O)c3ccc(Cl)c(F)c3)c(C)n2)s1 [5-(4-chloro-3-fluorobenzenesulfon-amidomethyl)-6-methyl-N-[(2-methyl-1,3-thiazol-5-yl)methyl]pyrazine-2-carboxamide]
31 | 10 µM | > 10 µM | Cc1ncc(CNC(=O)c2ncc(CNS(=O)(=O)c3ccc(F)c(Cl)c3)cn2)s1 [5-(3-chloro-4-fluorobenzenesulfon-amidomethyl)-N-[(2-methyl-1,3-thiazol-5-yl)methyl]pyrimidine-2-carboxamide]
32 | 10 µM | > 10 µM | CN(C)CCNC(=O)c1ccc(CNS(=O)(=O)c2ccc(F)c(Cl)c2)nc1 [6-(3-chloro-4-fluorobenzenesulfon-amidomethyl)-N-[2-(dimethylamino)ethyl] pyridine-3-carboxamide]
33 |  | 1 to 10 µM | Cc1ncc(CNC(=O)c2ccc(CNS(=O)(=O)c3cccc(Cl)c3)cn2)s1 [5-(3-chlorobenzenesulfon-amidomethyl)-N-[(2-methyl-1,3-thiazol-5-yl)methyl]pyridine-2-carboxamide]
34 | 10 µM | > 10 µM | Cc1cc(CNC(=O)c2ccc(CNS(=O)(=O)c3ccc(F)c(Cl)c3)nc2)n(C)n1 [6-(3-chloro-4-fluorobenzenesulfon-amidomethyl)-N-[(1,3-dimethyl-1H-pyrazol-5-yl)methyl]pyridine-3-carboxamide]
35 | 10 µM | > 10 µM | Cc1ncc(CNC(=O)c2ccc(CNS(=O)(=O)c3cn(C)cn3)cn2)s1 [N-[(2-methyl-1,3-thiazol-5-yl)methyl]-5-(1-methyl-1H-imidazole-4-sulfonamidomethyl) pyridine-2-carboxamide]
